Laboratory results from ChEMBL document CHEMBL6087417, “The synthesis and antileukemic activity of 5-substituted thiazolyl urea derivatives” (Bioorg Med Chem Lett, 2025).

Key:
THP-1 = experiment: Antileukemic activity against human THP-1 cells assessed as inhibition of cell proliferation by MTS assay; assay type: functional, cell-based
MV4-11 = experiment: Antileukemic activity against human MV4-11 cells assessed as inhibition of cell proliferation by MTS assay; assay type: functional, cell-based
[1] = Cytotoxicity against PBMC (unknown origin) assessed as cell survival at 20 uM relative to control; assay type: toxicity, cell-based; details: read-out: Survival

IC50 (THP-1) [µM] | IC50 (MV4-11) [µM] | Structure (SMILES) | viability at 20 µM [1] [%]
0.27 | 0.31 | COc1ccc(Cc2cnc(NC(=O)N3CCCN(c4ccc(Cl)cc4)CC3)s2)cc1 | –
0.21 | 0.13 | COc1cccc(Cc2cnc(NC(=O)N3CCN(c4ccc(Cl)cc4)CC3)s2)c1 | –
> 20 | > 20 | O=C(Nc1ncc(Cc2cccc(Br)c2)s1)N1CCN(c2cccc(F)n2)CC1 | –
0.36 | 0.19 | COc1ccccc1Cc1cnc(NC(=O)N2CCN(c3ccc(Cl)cc3)CC2)s1 | –
0.11 | 0.14 | O=C(Nc1ncc(Cc2cccc(O)c2)s1)N1CCN(c2ccc(Cl)cc2)CC1 | –
> 20 | 5.31 | Cc1ccnc(N2CCN(C(=O)Nc3ncc(Cc4cccc(Br)c4)s3)CC2)c1 | –
> 20 | > 20 | O=C(Nc1ncc(Cc2cccc(Br)c2)s1)N1CCN(Cc2ccc(Cl)cc2)CC1 | –
0.19 | 0.17 | O=C(Nc1ncc(Cc2cccc(Br)c2)s1)N1CCN(c2ccc(F)cc2)CC1 | –
1.61 | 1.32 | O=C(Nc1ncc(Cc2cccc(Br)c2)s1)N1CCN(c2ccccc2Cl)CC1 | –
> 20 | > 20 | O=C(Nc1ncc(Cc2cccc(Br)c2)s1)N1CCN(c2cc(Cl)cc(Cl)c2)CC1 | –
> 20 | > 20 | Cc1cccc(N2CCN(C(=O)Nc3ncc(Cc4cccc(Br)c4)s3)CC2)n1 | –
3.24 | 2.41 | CC1CCN(C(=O)Nc2ncc(Cc3cccc(Br)c3)s2)CC1 | –
0.33 | 0.26 | O=C(Nc1ncc(Cc2cccc(Br)c2)s1)N1CCN(c2ccc(Cl)cc2)CC1 | –
0.37 | 0.55 | O=C(Nc1ncc(Cc2ccc(Br)cc2)s1)N1CCN(c2ccc(Cl)cc2)CC1 | –
0.13 | 0.13 | COCc1cccc(Cc2cnc(NC(=O)N3CCN(c4ccc(Cl)cc4)CC3)s2)c1 | –
1.78 | 1.11 | Cc1ccc(N2CCN(C(=O)Nc3ncc(Cc4ccc(Br)cc4)s3)CC2)cc1 | –
> 20 | > 20 | O=C(Nc1ncc(Cc2cccc(Br)c2)s1)N1CCN(c2cc(C(F)(F)F)cc(C(F)(F)F)c2)CC1 | –
> 20 | 4.99 | O=C(Nc1ncc(Cc2ccccc2C(F)(F)F)s1)N1CCN(c2ccc(Cl)cc2)CC1 | –
0.37 | 0.3 | O=C(Nc1ncc(Cc2cccc(C(F)(F)F)c2)s1)N1CCN(c2ccc(Cl)cc2)CC1 | –
> 20 | > 20 | O=C(Nc1ncc(Cc2ccc(Br)cc2)s1)N1CCN(c2ccc(O)cc2)CC1 | –
> 20 | > 20 | O=C(Nc1ncc(Cc2cccc(Br)c2)s1)N1CCN(S(=O)(=O)c2ccc(Cl)cc2)CC1 | –
0.66 | 0.89 | N#Cc1ccc(N2CCN(C(=O)Nc3ncc(Cc4cccc(Br)c4)s3)CC2)cc1 | –
> 20 | 16.8 | O=C(Nc1ncc(Cc2cccc(Br)c2)s1)N1CCN(c2cccc(Cl)n2)CC1 | –
3.48 | 2.88 | Cc1ccc(N2CCN(C(=O)Nc3ncc(Cc4cccc(Br)c4)s3)CC2)cc1 | –
> 20 | 14.8 | CC1CN(C(=O)Nc2ncc(Cc3cccc(Br)c3)s2)CCN1c1ccc(Cl)cc1 (configuration not stated) | –
1.11 | 0.16 | O=C(Nc1ncc(Cc2ccccc2Cl)s1)N1CCN(c2ccc(Cl)cc2)CC1 | –
> 20 | > 20 | CC(C)Oc1cccc(Cc2cnc(NC(=O)N3CCN(c4ccc(Cl)cc4)CC3)s2)c1 | –

IC50 (THP-1) [µM] | IC50 (MV4-11) [µM] | Structure (SMILES) | viability at 20 µM [1] [%]
> 20 | 9.73 | O=C(Nc1ncc(Cc2cccc(Br)c2)s1)N1C2CC[C@@H]1CN(c1ccc(Cl)cc1)C2 | –
0.29 | 0.31 | COc1ccc(Cc2cnc(NC(=O)N3C4CC[C@@H]3CN(c3ccc(Cl)cc3)C4)s2)cc1 | –
> 20 | > 20 | O=C(Nc1ncc(Cc2cccc(Br)c2)s1)N1CCCN(c2ccc(Cl)cc2)CC1 | –
> 20 | 0.21 | Cc1cccc(Cc2cnc(NC(=O)N3CCN(c4ccc(Cl)cc4)CC3)s2)c1 | –
1.39 | 1.49 | CC1CCN(C(=O)Nc2ncc(Cc3ccc(Br)cc3)s2)CC1 | –
0.68 | 0.62 | O=C(Nc1ncc(Cc2cccc(Br)c2)s1)N1CCN(c2ccc(Cl)cn2)CC1 | –
4.05 | 1.85 | O=C(Nc1ncc(Cc2ccc(Br)cc2)s1)N1CCN(c2ccccc2)CC1 | –
> 20 | 4.5 | O=C(Nc1ncc(Cc2cccc(Br)c2)s1)N1CCN(c2ccc(C(F)(F)F)cc2)CC1 | –
> 20 | > 20 | O=C(Nc1ncc(Cc2cccc(Br)c2)s1)N1CCN(c2cccc(C(F)(F)F)n2)CC1 | –
1.3 | 1.12 | O=C(Nc1ncc(Cc2ccccc2Br)s1)N1CCN(c2ccc(Cl)cc2)CC1 | –
> 20 | > 20 | O=C(Nc1ncc(Cc2cccc(OCCCN3CCOCC3)c2)s1)N1CCN(c2ccc(Cl)cc2)CC1 | –
> 20 | 9.98 | O=C(Nc1ncc(Cc2cccc(Br)c2)s1)N1CCN(c2cccc(Cl)c2)CC1 | –
4.08 | 1.31 | O=C(Nc1ncc(Cc2cccc(Br)c2)s1)N1CCN(c2ccccc2)CC1 | –
> 20 | 11.1 | O=C(Nc1ncc(Cc2cccc(Br)c2)s1)N1CC2CC1CN2c1ccc(Cl)cc1 (configuration not stated) | –
9.58 | 2.8 | Cc1ccc(N2CCN(C(=O)Nc3ncc(Cc4ccccc4Br)s3)CC2)cc1 | –
0.18 | 0.23 | O=C(Nc1ncc(Cc2ccc(C(F)(F)F)cc2)s1)N1CCN(c2ccc(Cl)cc2)CC1 | –
3.84 | 1.89 | CC1CCN(C(=O)Nc2ncc(Cc3ccccc3Br)s2)CC1 | –
2.41 | 1.46 | O=C(Nc1ncc(Cc2ccccc2Br)s1)N1CCN(c2ccccc2)CC1 | –
> 20 | > 20 | CCOc1cccc(Cc2cnc(NC(=O)N3CCN(c4ccc(Cl)cc4)CC3)s2)c1 | –
0.2 | 0.39 | O=C(Nc1ncc(Cc2cccc(Cl)c2)s1)N1CCN(c2ccc(Cl)cc2)CC1 | –
> 20 | 2.05 | O=C(Nc1ncc(Cc2cccc(Br)c2)s1)N1CCN(c2ccc([N+](=O)[O-])cc2)CC1 | –
0.17 | 0.21 | O=C(Nc1ncc(Cc2ccc(Cl)cc2)s1)N1CCN(c2ccc(Cl)cc2)CC1 | –
> 20 | > 20 | O=C(Nc1ncc(Cc2cccc(Br)c2)s1)N1CCN(c2cccc(Br)n2)CC1 | –
> 20 | > 20 | O=C(Nc1ncc(Cc2cccc(Br)c2)s1)N1CCN(C(=O)c2ccc(Cl)cc2)CC1 | –
0.46 | – | Nc1ccn([C@@H]2O[C@H](CO)[C@@H](O)[C@@H]2O)c(=O)n1 [CYTARABINE] | –
– | 0.024 | CCc1nc(C(N)=O)c(Nc2ccc(N3CCC(N4CCN(C)CC4)CC3)c(OC)c2)nc1NC1CCOCC1 [GILTERITINIB] | –

Structure (SMILES) | IC50 (THP-1) [µM] | IC50 (MV4-11) [µM] | viability at 20 µM [1] [%]
COc1ccc(Cc2cnc(NC(=O)N3CCN(c4ccc(Cl)cc4)CC3)s2)cc1 | 0.029 | 0.098 | 91.7
